Measured values published in patent US20240226115A1, “AXL INHIBITOR COMPOUNDS” (ARCUS BIOSCIENCES, INC., priority 2021, published 2024).

How the values were obtained:
recombinant human MER = target: T1, recombinant human MER (Homo sapiens, UniProt Q12866); assay: HTRF KinEASE-TK biochemical potency, MER; settings: 1 nM MER, 700 μM ATP
T1 construct: purchased Invitrogen
T1 sequence (Q12866 21-999): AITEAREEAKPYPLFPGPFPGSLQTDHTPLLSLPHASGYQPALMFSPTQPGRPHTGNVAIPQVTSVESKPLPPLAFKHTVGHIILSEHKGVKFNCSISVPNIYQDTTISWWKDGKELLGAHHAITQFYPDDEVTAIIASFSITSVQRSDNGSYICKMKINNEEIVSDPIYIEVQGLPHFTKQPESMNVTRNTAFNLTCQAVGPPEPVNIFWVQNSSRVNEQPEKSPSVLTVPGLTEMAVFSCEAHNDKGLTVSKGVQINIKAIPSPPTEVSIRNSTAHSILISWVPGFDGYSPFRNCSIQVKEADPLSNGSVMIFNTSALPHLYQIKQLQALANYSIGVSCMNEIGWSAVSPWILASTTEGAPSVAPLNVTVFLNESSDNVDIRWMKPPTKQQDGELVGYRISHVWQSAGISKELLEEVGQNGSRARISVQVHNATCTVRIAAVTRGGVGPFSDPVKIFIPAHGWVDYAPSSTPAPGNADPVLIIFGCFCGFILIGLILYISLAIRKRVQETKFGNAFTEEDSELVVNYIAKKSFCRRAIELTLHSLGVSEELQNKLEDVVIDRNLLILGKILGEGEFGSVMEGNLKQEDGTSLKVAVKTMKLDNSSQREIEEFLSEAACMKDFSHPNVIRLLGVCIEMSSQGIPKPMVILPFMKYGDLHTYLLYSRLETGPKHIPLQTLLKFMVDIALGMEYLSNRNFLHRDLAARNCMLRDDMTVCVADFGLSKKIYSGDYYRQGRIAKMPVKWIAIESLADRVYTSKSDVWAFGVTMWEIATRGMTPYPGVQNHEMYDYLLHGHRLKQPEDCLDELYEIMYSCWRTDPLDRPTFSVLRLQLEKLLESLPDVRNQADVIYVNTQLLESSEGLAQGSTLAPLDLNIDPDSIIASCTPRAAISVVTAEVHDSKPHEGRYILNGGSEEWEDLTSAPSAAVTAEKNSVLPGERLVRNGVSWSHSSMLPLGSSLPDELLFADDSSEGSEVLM
Experimental: (§1) Purified recombinant human AXL, TYRO3 and MER proteins were purchased from Invitrogen™. 10 nM AXL, 2 nM TYRO3 or MER were incubated with varying concentrations of compounds in 50 mM HEPES, pH 7.4, 10 mM MgCl2, 0.01% BSA, 1 mM DTT and 2% DMSO in a total volume of 20 μl in a 384-well microplate (Corning™ #3640) at RT for 1 h. The AXL, TYRO3 and MER enzymatic reaction was initiated by transferring 10 μl of enzyme and compound mixture into 10 μl of 1.6 μM TK Substrate-biotin (HTRF® KinEASE-TK kit, Cisbio) and 1400 μM ATP pre-incubated in 50 mM HEPES, pH 7.4, 10 mM MgCl2, 0.01% BSA, 1 mM DTT in a 384-well microplate (Corning™ #3640) at RT, giving the final reaction conditions: 5 nM AXL, 1 nM TYRO3 or MER, 800 nM TK Substrate-biotin and 700 μM ATP in 50 mM HEPES, pH 7.4, 10 mM MgCl2, 0.01% BSA, 1 mM DTT and 1% DMSO with varying concentrations of compounds. Following 2 h incubation at RT, the AXL, TYRO3 and MER enzymatic reaction was stopped by transfer of 10 μl of reaction into 10 μl of detection mix (400 nM Streptavidin-XL665, 200-fold dilution TK Antibody-Cryptate and detection buffer, HTRF® KinEASE-TK kit, Cisbio) in a white 384-well microplate (Perkin Elmer, OptiPlate 384). After 1 h incubation at RT, the plate was put into a plate reader (Evision) to read at 665/620 nm (acceptor/donor) for HTRF. The value of the DMSO blank (MIN inhibition=100% activity) was used as a negative control. The positive control was established by adding 5 μl of enzyme and DMSO mixture into 10 μl of detection mix followed by addition of 5 μl of TK Substrate-biotin and ATP mixture (MAX inhibition=0% activity). To calculate the percent activity, Equation 1 was used. Ratio665/620 is the value at a given compound concentration: […]

recombinant human TYRO3 = target: T2, recombinant human TYRO3 (Homo sapiens, UniProt Q06418); assay: HTRF KinEASE-TK biochemical potency, TYRO3; settings: 1 nM TYRO3, 700 μM ATP
T2 construct: purchased Invitrogen
T2 sequence (Q06418 41-890): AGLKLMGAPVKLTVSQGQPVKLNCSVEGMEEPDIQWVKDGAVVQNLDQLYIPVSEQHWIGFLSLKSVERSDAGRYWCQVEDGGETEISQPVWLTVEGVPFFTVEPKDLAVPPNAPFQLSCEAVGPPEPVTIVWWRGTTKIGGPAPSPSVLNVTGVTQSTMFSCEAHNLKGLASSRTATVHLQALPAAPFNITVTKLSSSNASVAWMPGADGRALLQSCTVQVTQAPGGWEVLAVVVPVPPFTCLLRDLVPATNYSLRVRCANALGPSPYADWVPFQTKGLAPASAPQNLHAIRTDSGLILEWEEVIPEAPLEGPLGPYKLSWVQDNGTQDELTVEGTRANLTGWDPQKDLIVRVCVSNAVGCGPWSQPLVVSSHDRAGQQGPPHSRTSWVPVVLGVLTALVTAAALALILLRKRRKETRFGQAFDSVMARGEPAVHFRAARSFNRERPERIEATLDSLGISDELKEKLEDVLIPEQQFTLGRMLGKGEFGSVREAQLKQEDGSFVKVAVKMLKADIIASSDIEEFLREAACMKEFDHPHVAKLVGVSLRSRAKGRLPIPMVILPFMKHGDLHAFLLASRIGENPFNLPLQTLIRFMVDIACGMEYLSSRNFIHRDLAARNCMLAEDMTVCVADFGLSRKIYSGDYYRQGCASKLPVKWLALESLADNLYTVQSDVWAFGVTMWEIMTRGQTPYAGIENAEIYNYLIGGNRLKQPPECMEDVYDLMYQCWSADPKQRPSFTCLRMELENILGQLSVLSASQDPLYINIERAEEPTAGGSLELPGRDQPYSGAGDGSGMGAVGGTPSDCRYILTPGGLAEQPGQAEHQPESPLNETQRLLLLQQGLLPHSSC
Experimental: as §1

IC50 (recombinant human MER) [nM] | IC50 (recombinant human TYRO3) [nM] | SMILES
< 100 | < 100 | O=C1NCCOc2cc(-c3n[nH]c4ncc(-c5ccc6c(c5)CCC(N5CCCC5)CC6)cc34)ccc21 (racemic) [Example 1, 8-{5-[7-(Pyrrolidin-1-yl)-6,7,8,9-tetrahydro-5H-benzo[7]annulen-2-yl]-1H-pyrazolo[3,4-b]pyridin-3-yl}-2,3,4,5-tetrahydro-1,4-benzoxazepin-5-one]
100 to 1000 | < 100 | O=C1NCCOc2cc(-c3n[nH]c4ncc(-c5ccc6c(c5)CC[C@H](N5CCCC5)CC6)cc34)ccc21 (single isomer, unassigned) [Example 56]
< 100 | < 100 | O=C1NCCOc2cc(-c3n[nH]c4ncc(-c5ccc6c(c5)CC[C@@H](N5CCCC5)CC6)cc34)ccc21 (single isomer, unassigned) [Example 57]
< 100 | < 100 | O=C1NCCOc2cc(-c3n[nH]c4ncc(-c5ccc6c(c5)CCC(N5CCCC5)C6)cc34)ccc21 (centres unmarked) [Example 2, 8-{5-[6-(Pyrrolidin-1-yl)-5,6,7,8-tetrahydronaphthalen-2-yl]-1H-pyrazolo[3,4-b]pyridin-3-yl}-2,3,4,5-tetrahydro-1,4-benzoxazepin-5-one]
< 100 | < 100 | O=C1NCCOc2cc(-c3n[nH]c4ncc(-c5ccc6c(c5)CC(N5CCCC5)CC6)cc34)ccc21 (centres unmarked) [Example 3, 8-{5-[7-(Pyrrolidin-1-yl)-5,6,7,8-tetrahydronaphthalen-2-yl]-1H-pyrazolo[3,4-b]pyridin-3-yl}-2,3,4,5-tetrahydro-1,4-benzoxazepin-5-one]
< 100 | < 100 | O=C1NCCOc2cc(-c3n[nH]c4ncc(-c5ccc6c(c5)CCC(N[C@H]5CCOC5)C6)cc34)ccc21 (stereo partly drawn) [Example 4, 8-[5-(6-{[(3S)—Oxolan-3-yl]amino}-5,6,7,8-tetrahydronaphthalen-2-yl)-1H-pyrazolo[3,4-b]pyridin-3-yl]-2,3,4,5-tetrahydro-1,4-benzoxazepin-5-one]
< 100 | < 100 | O=C1NCCOc2cc(-c3n[nH]c4ncc(-c5ccc6c(c5)CCC(N[C@@H]5CCOC5)C6)cc34)ccc21 (stereo partly drawn) [Example 5, 8-[5-(6-{[(3R)—Oxolan-3-yl]amino}-5,6,7,8-tetrahydronaphthalen-2-yl)-1H-pyrazolo[3,4-b]pyridin-3-yl]-2,3,4,5-tetrahydro-1,4-benzoxazepin-5-one]
< 100 | < 100 | C[C@@H]1CCCN1C1CCc2ccc(-c3cnc4[nH]nc(-c5cc(F)c6c(c5)OCCNC6=O)c4c3)cc2CC1 (stereo partly drawn) [Example 6, 6-Fluoro-8-(5-{7-[(2R)-2-methylpyrrolidin-1-yl]-6,7,8,9-tetrahydro-5H-benzo[7]annulen-2-yl}-1H-pyrazolo[3,4-b]pyridin-3-yl)-2,3,4,5-tetrahydro-1,4-benzoxazepin-5-one]
< 100 | < 100 | O=C1NCCOc2cc(-c3n[nH]c4ncc(-c5ccc6c(c5)CCN(C5CCCC5)CC6)cc34)ccc21 [Example 7, 8-[5-(3-Cyclopentyl-2,3,4,5-tetrahydro-1H-3-benzazepin-7-yl)-1H-pyrazolo[3,4-b]pyridin-3-yl]-2,3,4,5-tetrahydro-1,4-benzoxazepin-5-one]
< 100 | < 100 | O=C1NCCOc2cc(-c3n[nH]c4ncc(-c5ccc6c(c5)CCN(C5CCCC5)C6)cc34)ccc21 [Example 9, 8-(5-(2-Cyclopentyl-1,2,3,4-tetrahydroisoquinolin-6-yl)-1H-pyrazolo[3,4-b]pyridin-3-yl)-3,4-dihydrobenzo[f][1,4]oxazepin-5(2H)-one]
< 100 | < 100 | O=C1NCCOc2cc(-c3n[nH]c4ncc(-c5ccc6c(c5)CN(C5CCCC5)CC6)cc34)ccc21 [Example 10, 8-(5-(2-Cyclopentyl-1,2,3,4-tetrahydroisoquinolin-7-yl)-1H-pyrazolo[3,4-b]pyridin-3-yl)-3,4-dihydrobenzo[f][1,4]oxazepin-5(2H)-one]
< 100 | < 100 | O=C1NCCOc2cc(-c3n[nH]c4ncc(-c5ccc6c(c5)CCN(C5COC5)CC6)cc34)ccc21 [Example 11, 8-(5-(3-(Oxetan-3-yl)-2,3,4,5-tetrahydro-1H-benzo[d]azepin-7-yl)-1H-pyrazolo[3,4-b]pyridin-3-yl)-3,4-dihydrobenzo[f][1,4]oxazepin-5(2H)-one]
100 to 1000 | < 100 | O=C1NCCOc2cc(-c3n[nH]c4ncc(-c5ccc6c(c5)CCN(C5COC5)C6)cc34)ccc21 [Example 12, 8-(5-(2-(Oxetan-3-yl)-1,2,3,4-tetrahydroisoquinolin-6-yl)-1H-pyrazolo[3,4-b]pyridin-3-yl)-3,4-dihydrobenzo[f][1,4]oxazepin-5(2H)-one]
100 to 1000 | < 100 | COCCN1CCc2cc(-c3cnc4[nH]nc(-c5ccc6c(c5)OCCNC6=O)c4c3)ccc2C1 [Example 13, 8-(5-(2-(2-Methoxyethyl)-1,2,3,4-tetrahydroisoquinolin-6-yl)-1H-pyrazolo[3,4-b]pyridin-3-yl)-3,4-dihydrobenzo[f][1,4]oxazepin-5(2H)-one]
< 100 | < 100 | COCCN1CCc2ccc(-c3cnc4[nH]nc(-c5ccc6c(c5)OCCNC6=O)c4c3)cc2CC1 [Example 15, 8-(5-(3-(2-Methoxyethyl)-2,3,4,5-tetrahydro-1H-benzo[d]azepin-7-yl)-1H-pyrazolo[3,4-b]pyridin-3-yl)-3,4-dihydrobenzo[f][1,4]oxazepin-5(2H)-one]
100 to 1000 | < 100 | CC(C)C(=O)N1CCc2ccc(-c3cnc4[nH]nc(-c5ccc6c(c5)OCCNC6=O)c4c3)cc2CC1 [Example 16, 8-{5-[3-(2-Methylpropanoyl)-2,3,4,5-tetrahydro-1H-3-benzazepin-7-yl]-1H-pyrazolo[3,4-b]pyridin-3-yl}-2,3,4,5-tetrahydro-1,4-benzoxazepin-5-one]
